Measured values published in patent publication US10112955B2, “Isoindoline, azaisoindoline, dihydroindenone and dihydroazaindenone inhibitors of Mnk1 and Mnk2” (eFFECTOR THERAPEUTICS, INC., priority 2015, dated 2018).

How the values were obtained:
MNK2 = MNK2 (Homo sapiens (Human), UniProt Q9HBH9); assay: MNK Biochemical Enzymatic Assay (ADP-Glo), MNK2; settings: 3 nM recombinant MNK2, 50 μM substrate peptide, 10 μM ATP
Method: (§1) Compounds are screened for MNK inhibition using the ADP-Glo kinase assay kit (Promega, catalogue No. V9101). All kinase reactions are performed in Reaction Buffer E (15 mM HEPES pH7.4, 20 mM NaCl, 1 mM EGTA, 10 mM MgCl2, 0.1 mg/ml BGG, and 0.02% Tween-20). […] Final DMSO concentration in each reaction is 1%.
(§2) Kinase reactions are carried out in 96-well half-area white flat-bottom polystyrene plates in a final volume of 25 μl. MNK1/2 enzymes are pre-incubated with compound and peptide substrate for 5 minutes prior to the addition of ATP. After the addition of ATP, kinase reactions are incubated at room temperature for 40 minutes. Reactions are subsequently stopped by the addition of 25 μl of ADP-Glo Reagent and incubating for an additional 40 minutes. The final luminescent signal used for kinase activity readout is produced by the addition of 45 μl of Kinase Detection Reagent (ADP-Glo kit, Promega) and incubating for 40 minutes.

Phosphorylated eIF4E = assay: peIF4E Signaling Cellular Assay (CisBio peIF4E HTRF); assay type: cell-based; settings: cells incubated with compound for 2 hrs at 37° C., 12-point curve
Method: Phosphorylated eIF4E is assayed using the CisBio peIF4E HTRF® assay kit (CisBio, catalogue No. 64EF4PEG). Cells are plated in 96-well tissue-culture treated plate in appropriate growth medium (90 μL). Compounds (10×) are diluted using 3-fold serial dilutions in cell culture medium and added to cells. Plates are incubated for 2 hrs at 37° C. The cell supernatant is carefully removed either by aspirating supernatant or by flicking the plate. Immediately 50 μL of supplemented lysis buffer (1×) is added and incubated for at least 30 minutes at room temperature under shaking. After homogenization by pipeting up and down, 16 μL of cell lysate is transferred from the 96-well cell-culture plate to a 384-well small volume white plate. 4 μL of premixed antibody solutions (vol/vol) is prepared in the detection buffer and added. The plate is covered with a plate sealer and incubated overnight at room temperature. The fluorescence emissions at two different wavelengths are read (665 nm and 620 nm) on a Wallac Victor2. Emission ratios are converted into percent inhibitions and imported into GraphPad Prism software. […] IC50 values are determined using a nonlinear regression model available in GraphPad Prism 5.

[1] = Pharmacokinetics, single oral gavage administration; assay type: in vivo; settings: male Sprague Dawley rats, single oral gavage 10 mg/kg, N = 3/group (Cpd. 71 N = 2), formulation 10% NMP/90% PEG400 (Cpd. 57: 10% DMA/90% PEG300); for AUC(0-inf) / Cmax / Tmax / half-life: rat, plasma
Method: (§3) Groups of Balb/c mice or Sprague-Dawley rats (n≥3 per dose group) are administered single doses of test compound. Compounds are formulated either as solutions in 10% N-methylpyrrolidone, 90% polyethyleneglycol 400 or as suspensions in 0.5% methylcellulose in water for oral gavage administration at a nominal dose level of 10 mg/kg. Compounds are formulated in 10% dimethylisosorbide, 15% ethanol, 35% propylene glycol, and 40% saline (or 40% D5W) for intravenous administration at a nominal dose level of 1 mg/kg. For intravenously dosed animals, blood samples are collected at 0.083, 0.25, 0.5, 1, 2, 4, 8, and 24 h post dose. For orally dosed animals, blood samples are collected at 0.25, 0.5, 1, 2, 4, 8, and 24 h post dose. Blood samples are collected from mice either serially via submandibular vein (approximately 0.1 mL each) or terminally via cardiac puncture (approximately 0.5 mL each). Blood samples are collected serially from rats via jugular vein catheter (approximately 0.2 mL each). Each blood sample is collected into a tube that is chilled and contains potassium EDTA as the anticoagulant. Plasma is separated and stored at approximately −80 C until analysis. Following protein precipitation with acetonitrile containing an internal standard, plasma samples are analyzed using a liquid chromatography/high-resolution mass spectrometry (LC-HRMS) method to determine plasma concentrations. Plasma concentration versus time data are subjected to noncompartmental pharmacokinetic analysis using Phoenix™ Winnonlin® (Certara LP) to determine pharmacokinetic parameters, including Area Under the Curve (AUC), Clearance (Cl), Volume of Distribution at Steady-State (Vss), and terminal half-life (T1/2). Data from orally and intravenously dose are highlighted in Tables 3 and 4, respectively.

[2] = Pharmacokinetics, single intravenous bolus administration; assay type: in vivo; settings: rat, plasma, male Sprague Dawley rats, single intravenous bolus 1 mg/kg, N = 3/group, formulation 10% NMP/15% EtOH/35% PEG400/40% D5W (Cpd. 57: 10% DMA/15% EtOH/35% PEG400/40% D5W); for half-life: read-out: T½ (converted); for Vd: read-out: Vss
Method: as §3, with “Compounds are formulated in 10% dimethylisosorbide, 15% ethanol, 35% propylene glycol, and 40% saline (or 40% D5W) for intravenous administration at a nominal dose level of 1 mg/kg.” left out

MNK1 = MNK1 (Homo sapiens (Human), UniProt Q9BUB5); assay: MNK Biochemical Enzymatic Assay (ADP-Glo), MNK1; settings: 10 nM recombinant MNK1, 100 μM substrate peptide, 300 μM ATP; read-out: IC50 Mnk1
Method: as §1, §2

Chain of MNK2 (Q9HBH9 whole entry): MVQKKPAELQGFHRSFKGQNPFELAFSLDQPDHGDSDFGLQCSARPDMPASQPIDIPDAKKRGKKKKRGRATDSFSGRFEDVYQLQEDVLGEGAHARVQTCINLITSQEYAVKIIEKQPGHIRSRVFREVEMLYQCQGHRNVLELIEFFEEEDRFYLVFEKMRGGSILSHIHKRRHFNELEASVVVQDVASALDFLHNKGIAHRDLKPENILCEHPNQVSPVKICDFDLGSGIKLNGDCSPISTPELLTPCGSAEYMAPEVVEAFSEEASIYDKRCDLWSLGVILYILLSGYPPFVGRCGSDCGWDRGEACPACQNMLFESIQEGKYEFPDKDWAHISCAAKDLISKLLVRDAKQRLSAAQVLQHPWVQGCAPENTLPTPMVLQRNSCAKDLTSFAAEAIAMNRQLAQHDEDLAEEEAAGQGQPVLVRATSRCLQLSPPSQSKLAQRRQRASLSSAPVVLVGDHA
Chain of MNK1 (Q9BUB5 whole entry): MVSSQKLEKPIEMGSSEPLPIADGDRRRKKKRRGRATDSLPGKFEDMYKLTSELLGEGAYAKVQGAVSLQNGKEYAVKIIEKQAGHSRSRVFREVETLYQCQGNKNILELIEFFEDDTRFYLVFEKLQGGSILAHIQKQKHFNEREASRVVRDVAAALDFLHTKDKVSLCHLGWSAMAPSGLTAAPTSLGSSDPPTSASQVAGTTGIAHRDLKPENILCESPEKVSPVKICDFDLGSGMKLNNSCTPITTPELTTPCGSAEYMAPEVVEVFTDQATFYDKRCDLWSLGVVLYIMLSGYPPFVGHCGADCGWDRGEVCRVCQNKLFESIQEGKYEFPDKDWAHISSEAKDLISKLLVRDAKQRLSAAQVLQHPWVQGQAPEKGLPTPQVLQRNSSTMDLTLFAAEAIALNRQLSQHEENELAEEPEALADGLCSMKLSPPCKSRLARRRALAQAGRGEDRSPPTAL

Row | Compound | IC50 (MNK2) [nM] | IC50 (Phosphorylated eIF4E) [nM] | F [1] [%] | AUC(0-inf) [1] [ng·h/mL] | Cmax [1] [ng/mL] | Tmax [1] [h] | half-life [1] [h] | AUC(0-inf) [2] [ng·h/mL] | clearance [2] [mL/min/kg] | half-life [2] [h] | Vd [2] [L/kg] | IC50 (MNK1) [nM]
1 | COc1c(N)ncnc1Nc1cc(C)c2c(c1)C1(CCCCC1)NC2=O [Cpd. No. 57, 6′-((6-amino-5-methoxypyrimidin-4-yl)amino)-4′-methylspiro[cyclohexane-1,1′-isoindolin]-3′-one] | < 10 | < 50 | 14.5 | 2490 | 584 | 0.833 | 3.27 | 1720 | 11.1 | 7.78 | 3.46 | 
2 | O=C1NCCc2cc(Nc3ccncn3)ccc21 [Cpd. No. 10, 6-(pyrimidin-4-ylamino)-3,4-dihydroisoquinolin-1(2H)-one] | 10 to 100 | 1000 to 100000 |  |  |  |  |  |  |  |  |  | 10 to 100
3 | Cc1cc(Nc2ccncn2)cc2c1C(=O)NC2C (centres unmarked) [Cpd. No. 33, 3,7-dimethyl-5-(pyrimidin-4-ylamino)isoindolin-1-one] | 10 to 100 | 1000 to 100000 |  |  |  |  |  |  |  |  |  | 10 to 100
4 | CC1NC(=O)c2c(Cl)cc(Nc3ccncn3)cc21 (centres unmarked) [Cpd. No. 35, 7-chloro-3-methyl-5-(pyrimidin-4-ylamino)isoindolin-1-one] | < 10 | 50 to 1000 |  |  |  |  |  |  |  |  |  | < 10
5 | Cc1cc(Nc2ncnc(N)c2C)nc2c1C(=O)NC21CCCCC1 [Cpd. No. 71, 2′-((6-amino-5-methylpyrimidin-4-yl)amino)-4′-methylspiro[cyclohexane-1,7′-pyrrolo[3,4-b]pyridin]-5′(6′H)-one] |  | < 50 | 63.9 | 5660 | 1140 | 0.5 | 2.9 | 886 | 19.1 | 4.15 | 3.9 | 
6 | CC1NC(=O)c2ccc(Nc3ncnc4c3CCN4)cc21 (centres unmarked) [Cpd. No. 39, 5-(6,7-dihydro-5H-pyrrolo[2,3-d]pyrimidin-4-ylamino)-3-methyl-isoindolin-1-one] | 100 to 10000 | 1000 to 100000 |  |  |  |  |  |  |  |  |  | 10 to 100
7 | CC1(C)NC(=O)c2c(Cl)cc(Nc3ccncn3)cc21 [Cpd. No. 36, 7-chloro-3,3-dimethyl-5-(pyrimidin-4-ylamino)isoindolin-1-one] | < 10 | 50 to 1000 |  |  |  |  |  |  |  |  |  | < 10
8 | CC1CC(=O)c2ccc(Nc3cc(NC(=O)C4CC4)ncn3)cc21 (centres unmarked) [Cpd. No. 19, N-(6-((3-methyl-1-oxo-2,3-dihydro-1H-inden-5-yl)amino)pyrimidin-4-yl)cyclopropanecarboxamide] | 10 to 100 | 50 to 1000 |  |  |  |  |  |  |  |  |  | < 10
9 | COc1c(N)ncnc1Nc1cc(C)c2c(n1)C1(CCCCC1)NC2=O [Cpd. No. 72, 2′-((6-amino-5-methoxypyrimidin-4-yl)amino)-4′-methylspiro[cyclohexane-1,7′-pyrrolo[3,4-b]pyridin]-5′(6′H)-one] |  | < 50 | 24.2 | 2740 | 1380 | 0.667 | 2.75 | 1130 | 14.8 | 8.48 | 4.59 | 
10 | CC1(C)NC(=O)c2c(Cl)cc(Nc3cc(N)ncn3)cc21 [Cpd. No. 43, 5-((6-aminopyrimidin-4-yl)amino)-7-chloro-3,3-dimethylisoindolin-1-one] | < 10 | < 50 |  |  |  |  |  |  |  |  |  | < 10
11 | CC(C)C1NC(=O)c2ccc(Nc3ccncn3)cc21 (centres unmarked) [Cpd. No. 13, 3-isopropyl-5-(pyrimidin-4-ylamino)isoindolin-1-one] | 10 to 100 | 1000 to 100000 |  |  |  |  |  |  |  |  |  | 10 to 100
12 | Cc1cc(Nc2ncnc(N)c2C)cc2c1C(=O)NC21CCCCC1 [Cpd. No. 55, 6′-((6-amino-5-methylpyrimidin-4-yl)amino)-4′-methylspiro[cyclohexane-1,1′-isoindolin]-3′-one] | 10 to 100 | < 50 | 25.0 | 2650 | 425 | 4 | 2.59 | 1060 | 16.6 | 7.34 | 6.56 | 
13 | CC(=O)Nc1cc(Nc2ccc3c(c2)CNC3=O)ncn1 [Cpd. No. 11, N-(6-((1-oxoisoindolin-5-yl)amino)pyrimidin-4-yl)acetamide] | 10 to 100 | 1000 to 100000 |  |  |  |  |  |  |  |  |  | < 10
14 | Cc1cc(Nc2ncnc(N)c2Cl)cc2c1C(=O)NC21CCCCC1 [Cpd. No. 58, 6′-((6-amino-5-chloropyrimidin-4-yl)amino)-4′-methylspiro[cyclohexane-1,1′-isoindolin]-3′-one] | < 10 | < 50 | 27.9 | 1370 | 417 | 0.417 | 9.15 | 491 | 35.3 | 9.44 | 13.2 | 
15 | O=C1NCc2cc(Nc3cc(NC(=O)C4CC4)ncn3)ccc21 [Cpd. No. 12, N-(6-((1-oxoisoindolin-5-yl)amino)pyrimidin-4-yl)cyclopropanecarboxamide] | < 10 | 50 to 1000 |  |  |  |  |  |  |  |  |  | < 10
16 | CC1NC(=O)c2ccc(Nc3ncnc4c3OCCN4)cc21 (centres unmarked) [Cpd. No. 38, 5-(7,8-dihydro-6H-pyrimido[5,4-b][1,4]oxazin-4-ylamino)-3-methyl-isoindolin-1-one] | 100 to 10000 | 1000 to 100000 |  |  |  |  |  |  |  |  |  | 10 to 100
